Experimental data from patent publication US20230051589A1, “COMPOUNDS AND COMPOSITIONS FOR TREATING CONDITIONS ASSOCIATED WITH NLRP ACTIVITY” (Novartis AG, priority 2018, published 2023).

system: IL-1β production in PMA-differentiated THP-1 cells; assay: IL-1β production in PMA-differentiated THP-1 cells stimulated with gramicidin (hTHP-1 assay, 2% fetal bovine serum; Procedures 1-3); type: cell-based, human; settings: Table B3; hTHP-1 assay containing 2% fetal bovine serum, gramicidin stimulation, IL-1β readout; read-out: hTHP-1 IC50
Procedure, shortened: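 IL-1β released into supernatants was read by HTRF after 2 h gramicidin (5 μM) challenge. Before challenge, compounds (3-fold dilutions, top 100 μM, 0.37% DMSO) were given 1 h on THP-1 cells differentiated with PMA (20 ng/ml, 16-18 h) and held in 2% FBS medium.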

| IC50 | SMILES |
| --- | --- |
| 8 to 40 nM | C[C@](O)(CO)c1ncc(S(N)(=O)=NC(=O)Nc2c3c(cc4c2CC4)CCC3)s1 (single isomer, unassigned) [Example 815, (R) or (S)-2-((S)-1,2-dihydroxypropan-2-yl)-N′-((2,4,5,6-tetrahydro-1H-cyclobuta[f]inden-3-yl)carbamoyl)thiazole-5-sulfonimidamide] |
| 200 to 1000 nM | C[C@](O)(CO)c1ncc(S(N)(=O)=NC(=O)Nc2c3c(cc4c2CC4)CCC3)s1 (single isomer, unassigned) [Example 816, (S) or (R)-2-((S)-1,2-dihydroxypropan-2-yl)-N′-((2,4,5,6-tetrahydro-1H-cyclobuta[f]inden-3-yl)carbamoyl)thiazole-5-sulfonimidamide] |
| 8 to 40 nM | C[C@@](O)(CO)c1ncc(S(N)(=O)=NC(=O)Nc2c3c(cc4c2CC4)CCC3)s1 (single isomer, unassigned) [Example 817, (R) or (S)-2-((R)-1,2-dihydroxypropan-2-yl)-N′-((2,4,5,6-tetrahydro-1H-cyclobuta[f]inden-3-yl)carbamoyl)thiazole-5-sulfonimidamide] |
| 200 to 1000 nM | C[C@@](O)(CO)c1ncc(S(N)(=O)=NC(=O)Nc2c3c(cc4c2CC4)CCC3)s1 (single isomer, unassigned) [Example 818, (S) or (R)-2-((R)-1,2-dihydroxypropan-2-yl)-N′-((2,4,5,6-tetrahydro-1H-cyclobuta[f]inden-3-yl)carbamoyl)thiazole-5-sulfonimidamide] |
| 200 to 1000 nM | C[C@@](O)(CO)c1ncc(S(N)(=O)=NC(=O)Nc2c3c(cc4c2C(=O)CC4)CCC3)s1 (single isomer, unassigned) [Example 819, (R) or (S) -2-((R)-1,2-dihydroxypropan-2-yl)-N′-((3-oxo-1,2,3,5,6,7-hexahydro-s-indacen-4-yl)carbamoyl)thiazole-5-sulfonimidamide] |
| 5000 to 30000 nM | C[C@@](O)(CO)c1ncc(S(N)(=O)=NC(=O)Nc2c3c(cc4c2C(=O)CC4)CCC3)s1 (single isomer, unassigned) [Example 820, (S) or (R)-2-((R)-1,2-dihydroxypropan-2-yl)-N′-((3-oxo-1,2,3,5,6,7-hexahydro-s-indacen-4-yl)carbamoyl)thiazole-5-sulfonimidamide] |
| 200 to 1000 nM | NS(=O)(=NC(=O)Nc1c2c(cc3c1CCC3)CCC2)c1ccc([C@@H]2CCCN2)s1 (single isomer, unassigned) [Example 821, (R) or (S) -N′-((1,2,3,5,6,7-hexahydro-s-indacen-4-yl)carbamoyl)-5-((S)-pyrrolidin-2-yl)thiophene-2-sulfonimidamide] |
| 1000 to 5000 nM | NS(=O)(=NC(=O)Nc1c2c(cc3c1CCC3)CCC2)c1ccc([C@@H]2CCCN2)s1 (single isomer, unassigned) [Example 822, (S) or (R) -N′-((1,2,3,5,6,7-hexahydro-s-indacen-4-yl)carbamoyl)-5-((S)-pyrrolidin-2-yl)thiophene-2-sulfonimidamide] |
| 200 to 1000 nM | NS(=O)(=NC(=O)Nc1c2c(cc3c1CCC3)CCC2)c1ccc([C@H]2CCCN2)s1 (single isomer, unassigned) [Example 823, (R) or (S) -N′-((1,2,3,5,6,7-hexahydro-s-indacen-4-yl)carbamoyl)-5-((R)-pyriolidin-2-yl)thiophene-2-sulfonimidamide] |
| 5000 to 30000 nM | NS(=O)(=NC(=O)Nc1c2c(cc3c1CCC3)CCC2)c1ccc([C@H]2CCCN2)s1 (single isomer, unassigned) [Example 824, (S) or (R) -N′-((1,2,3,5,6,7-hexahydro-s-indacen-4-yl)carbamoyl)-5-((R)-pyrrolidin-2-yl)thiophene-2-sulfommidamide] |
| 40 to 200 nM | CCn1ccc(S(N)(=O)=NC(=O)Nc2c3c(cc4c2CC4)CCC3)n1 (single isomer, unassigned) [Example 825] |
| 1000 to 5000 nM | CCn1ccc(S(N)(=O)=NC(=O)Nc2c3c(cc4c2CC4)CCC3)n1 (single isomer, unassigned) [Example 826, (S) or (R) -1-ethyl-N′-((2,4,5,6-tetrahydro-1H-cyclobuta[f]inden-3-yl)carbamoyl)-1H-pyrazole-3-sulfonimidamide] |
| 200 to 1000 nM | CC(C)(O)c1ccnc(S(N)(=O)=NC(=O)Nc2c3c(c(C#N)c4c2CCC4)CCC3)c1 (single isomer, unassigned) [Example 827, (R) or (S)-N′-((8-cyano-1,2,3,5,6,7-hexahydro-s-indacen-4-yl)carbamoyl)-4-(2-hydroxypropan-2-yl)pyridine-2-sulfonimidamide] |
| 1000 to 5000 nM | CC(C)(O)c1ccnc(S(N)(=O)=NC(=O)Nc2c3c(c(C#N)c4c2CCC4)CCC3)c1 (single isomer, unassigned) [Example 828, (S) or (R)-N′-((8-cyano-1,2,3,5,6,7-hexahydro-s-indacen-4-yl)carbamoyl)-4-(2-hydroxypropan-2-yl)pyridine-2-sulfonimidamide] |
| 1000 to 5000 nM | CC(C)(CO)c1ncc(S(N)(=O)=NC(=O)Nc2c3c(c(C#N)c4c2CCC4)CCC3)s1 (single isomer, unassigned) [Example 829, (S) or (R)-N′-((8-cyano-1,2,3,5,6,7-hexahydro-s-indacen-4-yl)carbamoyl)-2-(1-hydroxy-2-methylpropan-2-yl)thiazole-5-sulfonimidamide] |
| 40 to 200 nM | CC(C)(CO)c1ncc(S(N)(=O)=NC(=O)Nc2c3c(c(C#N)c4c2CCC4)CCC3)s1 (single isomer, unassigned) [Example 830, (R) or (S)-N′-((8-cyano-1,2,3,5,6,7-hexahydro-s-indacen-4-yl)carbamoyl)-2-(1-hydroxy-2-methylpropan-2-yl)thiazole-5-sulfonimidamide] |
| > 30000 nM | CC(C)(O)c1ccc(S(N)(=O)=NC(=O)Nc2c3c(cc4c2C(=O)CC4)CCC3)cn1 (single isomer, unassigned) [Example 831, (S) or (R)-6-(2-hydroxypropan-2-yl)-N′-((3-oxo-1,2,3,5,6,7-hexahydro-s-indacen-4-yl)carbamoyl)pyridine-3-sulfonimidamide] |
| 200 to 1000 nM | CC(C)(O)c1ccc(S(N)(=O)=NC(=O)Nc2c3c(cc4c2C(=O)CC4)CCC3)cn1 (single isomer, unassigned) [Example 832, (R) or (S)-6-(2-hydroxypropan-2-yl)-N′-((3-oxo-1,2,3,5,6,7-hexahydro-s-indacen-4-yl)carbamoyl)pyridine-3-sulfonimidamide] |
| 8 to 40 nM | NS(=O)(=NC(=O)Nc1c2c(cc3c1CC3)CCC2)c1sc2c(c1F)CNCC2 (single isomer, unassigned) [Example 833, (R) or (S)-3-fluoro-N′-((2,4,5,6-tetrahydro-1H-cyclobuta[f]inden-3-yl)carbamoyl)-4,5,6,7-tetrahydrothieno[3,2-c]pyridine-2-sulfonimidamide] |
| 200 to 1000 nM | NS(=O)(=NC(=O)Nc1c2c(cc3c1CC3)CCC2)c1sc2c(c1F)CNCC2 (single isomer, unassigned) [Example 834, (S) or (R)-3-fluoro-N′-((2,4,5,6-tetrahydro-1H-cyclobuta[f]inden-3-yl)carbamoyl)-4,5,6,7-tetrahydrothieno[3,2-c]pyridine-2-sulfonimidamide] |
| 40 to 200 nM | CN1CCc2sc(S(N)(=O)=NC(=O)Nc3c4c(cc5c3CC5)CCC4)c(F)c2C1 (single isomer, unassigned) [Example 835, (R) or (S)-3-fluoro-5-methyl-N′-((2,4,5,6-tetrahydro-1H-cyclobuta[f]inden-3-yl)carbamoyl)-4,5,6,7-tetrahydrothieno[3,2-c]pyridine-2-sulfonimidamide] |
| 1000 to 5000 nM | CN1CCc2sc(S(N)(=O)=NC(=O)Nc3c4c(cc5c3CC5)CCC4)c(F)c2C1 (single isomer, unassigned) [Example 836, (S) or (R)-3-fluoro-5-methyl-N′-((2,4,5,6-tetrahydro-1H-cyclobuta[f]inden-3-yl)carbamoyl)-4,5,6,7-tetrahydrothieno[3,2-c]pyridine-2-sulfonimidamide] |
| 40 to 200 nM | CNCc1csc(S(N)(=O)=NC(=O)Nc2c3c(cc4c2CC4)CCC3)c1 (single isomer, unassigned) [Example 837, (R) or (S)-4-((methylamino)methyl)-N′-((2,4,5,6-tetrahydro-1H-cyclobuta[f]inden-3-yl)carbamoyl)thiophene-2-sulfonimidamide] |
| 200 to 1000 nM | CNCc1csc(S(N)(=O)=NC(=O)Nc2c3c(cc4c2CC4)CCC3)c1 (single isomer, unassigned) [Example 838, (S) or (R)-4-((methylamino)methyl)-N′-((2,4,5,6-tetrahydro-1H-cyclobuta[f]inden-3-yl)carbamoyl)thiophene-2-sulfonimidamide] |
| 40 to 200 nM | NS(=O)(=NC(=O)Nc1c2c(cc3c1CC3)CCC2)c1nn(C(F)F)cc1F (single isomer, unassigned) [Example 839, (R) or (S)-1-(difluoromethyl)-4-fluoro-N′-((2,4,5,6-tetrahydro-1H-cyclobuta[f]inden-3-yl)carbamoyl)-1H-pyrazole-3-sulfonimidamide] |
| 1000 to 5000 nM | NS(=O)(=NC(=O)Nc1c2c(cc3c1CC3)CCC2)c1nn(C(F)F)cc1F (single isomer, unassigned) [Example 840, (S) or (R)-1-(difluoromethyl)-4-fluoro-N′-((2,4,5,6-tetrahydro-1H-cyclobuta[f]inden-3-yl)carbamoyl)-1H-pyrazole-3-sulfonimidamide] |
| 200 to 1000 nM | NS(=O)(=NC(=O)Nc1c2c(cc3c1CC3)CCC2)c1sc2c(c1F)COCC2 (single isomer, unassigned) [Example 841, (R) or (S)-3-fluoro-N′-((2,4,5,6-tetrahydro-1H-cyclobuta[f]inden-3-yl)carbamoyl)-6,7-dihydro-4H-thieno[3,2-c]pyran-2-sulfonimidamide] |
| 5000 to 30000 nM | NS(=O)(=NC(=O)Nc1c2c(cc3c1CC3)CCC2)c1sc2c(c1F)COCC2 (single isomer, unassigned) [Example 842, (S) or (R)-3-fluoro-N′-((2,4,5,6-tetrahydro-1H-cyclobuta[f]inden-3-yl)carbamoyl)-6,7-dihydro-4H-thieno[3,2-c]pyran-2-sulfonimidamide] |
